Reference: patent US6737383B1, “Herbicidal oxadiazolidines” (priority 1999, dated 2004)

Key:
giant foxtail = experiment: Test B pre/postemergence giant foxtail; type: in vivo, Setaria faberii
Procedure, shortened: (§1)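 Response is a visual 0-to-10 score relative to untreated plants, where 0 means no effect and 10 means complete control, taken twelve to sixteen days after application. Treatments went onto soil at planting and onto foliage of 1- to 4-leaf plants, using a surfactant-containing non-phytotoxic solvent.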

wheat = experiment: Test B pre/postemergence wheat; type: in vivo, Triticum aestivum
Procedure, shortened: as §1

wild oat = experiment: Test B pre/postemergence wild oat; type: in vivo, Avena fatua
Procedure, shortened: as §1

crabgrass = experiment: Test B pre/postemergence crabgrass; type: in vivo, Digitaria sanguinalis
Procedure, shortened: as §1

soybean = experiment: Test B pre/postemergence soybean; type: in vivo, Glycine max
Procedure, shortened: as §1

surinam grass = experiment: Test B pre/postemergence surinam grass; type: in vivo, Brachiaria decumbens
Procedure, shortened: as §1

blackgrass = experiment: Test B pre/postemergence blackgrass; type: in vivo, Alopecurus myosuroides
Procedure, shortened: as §1

rice = experiment: Test B flood test rice; type: in vivo, Oryza sativa
Procedure, shortened: (§2)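 Flood test on plants grown to the 2-leaf stage; treated plants kept in greenhouse twelve to sixteen days, then visually rated against controls on a 0 (no effect) to 10 (complete control) scale.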

duck salad = experiment: Test B flood test duck salad; type: in vivo, Heteranthera limosa
Procedure, shortened: as §2

pigweed = experiment: Test B pre/postemergence pigweed; type: in vivo, Amaranthus retroflexus
Procedure, shortened: as §1

bedstraw = experiment: Test B pre/postemergence bedstraw; type: in vivo, Galium aparine
Procedure, shortened: as §1

purple nutsedge = experiment: Test B pre/postemergence purple nutsedge; type: in vivo, Cyperus rotundus
Procedure, shortened: as §1

cocklebur = experiment: Test B pre/postemergence cocklebur; type: in vivo, Xanthium strumarium
Procedure, shortened: as §1

sugar beet = experiment: Test B pre/postemergence sugar beet; type: in vivo, Beta vulgaris
Procedure, shortened: as §1

corn = experiment: Test B pre/postemergence corn; type: in vivo, Zea mays
Procedure, shortened: as §1

velvetleaf = experiment: Test B pre/postemergence velvetleaf; type: in vivo, Abutilon theophrasti
Procedure, shortened: as §1

[1] = Postemergence, Rate 250 g/ha, scale 0 to 10
[2] = Postemergence, Rate 500 g/ha, scale of 0 to 10 where 0 is no effect and 10 is complete control
[3] = Postemergence, Rate 1000 g/ha, scale 0 to 10 (0 no effect, 10 complete control)
[4] = Preemergence, Rate 125 g/ha, scale of 0 to 10 where 0 is no effect and 10 is complete control
[5] = Preemergence, Rate 250 g/ha, scale 0 to 10, 0 is no effect, 10 is complete control
[6] = Preemergence, Rate 500 g/ha, scale 0 to 10, 0 is no effect, 10 is complete control
[7] = Rate 125 g/ha, Postemergence, scale 0 to 10, 0 is no effect, 10 is complete control
[8] = Rate 1000 g/ha, Preemergence, scale 0 to 10 (0 no effect, 10 complete control)
[9] = Pre-emergence, Rate 1000 g/ha, scale 0 to 10 (0 no effect, 10 complete control)
[10] = Rate 125 g/ha, under heading Pre-emergence, flood test species, visual evaluation after twelve to sixteen days
[11] = Rate 250 g/ha, Pre-emergence (flood test species), scale 0 to 10, 0 is no effect, 10 is complete control
[12] = Rate 500 g/ha, Pre-emergence, flood test species, scale 0 to 10 (0 no effect, 10 complete control)

CCOP(=O)(OCC)C(C)n1c(=O)on(C(=O)N(c2ccccc2)C(C)C)c1=O (centres unmarked) [Compound 448]
Giant foxtail plant response rating (giant foxtail; [1]): 0 | Giant foxtail plant response rating (giant foxtail; [2]): 0 | Giant foxtail plant response rating (giant foxtail; [3]): 0 | Plant response rating, Giant foxtail (giant foxtail; [4]): 2 | Giant foxtail plant response rating (giant foxtail; [5]): 3 | Giant foxtail plant response rating (giant foxtail; [6]): 9 | Giant foxtail plant response rating (giant foxtail; [7]): 0 | Plant response rating, Giant foxtail (giant foxtail; [8]): 9 | Wheat plant response rating (wheat; [1]): 0 | Wheat plant response rating (wheat; [2]): 0 | Wheat plant response rating (wheat; [3]): 0 | Plant response rating, Wheat (wheat; [4]): 0 | Wheat plant response rating (wheat; [5]): 0 | Wheat plant response rating (wheat; [6]): 0 | Wheat plant response rating (wheat; [7]): 0 | Plant response rating, Wheat (wheat; [8]): 0 | Wild oats plant response rating (wild oat; [1]): 0 | Wild oats plant response rating (wild oat; [2]): 0 | Wild oats plant response rating (wild oat; [3]): 4 | Plant response rating, Wild oats (wild oat; [4]): 0 | Wild oats plant response rating (wild oat; [5]): 0 | Wild oats plant response rating (wild oat; [6]): 0 | Wild oats plant response rating (wild oat; [7]): 0 | Plant response rating, Wild oats (wild oat; [8]): 5 | Crabgrass plant response rating (crabgrass; [1]): 0 | Crabgrass plant response rating (crabgrass; [2]): 0 | Crabgrass plant response rating (crabgrass; [3]): 0 | Plant response rating, Crabgrass (crabgrass; [4]): 4 | Crabgrass plant response rating (crabgrass; [5]): 4 | Crabgrass plant response rating (crabgrass; [6]): 9 | Crabgrass plant response rating (crabgrass; [7]): 0 | Plant response rating, Crabgrass (crabgrass; [8]): 9 | Soybean plant response rating (soybean; [1]): 2 | Soybean plant response rating (soybean; [2]): 5 | Soybean plant response rating (soybean; [3]): 6 | Plant response rating, Soybean (soybean; [4]): 0 | Soybean plant response rating (soybean; [5]): 0 | Soybean plant response rating (soybean; [6]): 0 | Soybean plant response rating (soybean; [7]): 1 | Plant response rating, Soybean (soybean; [8]): 0 | B. signalgrass plant response rating (surinam grass; Postemergence, Rate 250 g/ha, scale 0 to 10, 0 no effect, 10 complete control): 0 | B. signalgrass plant response rating (surinam grass; [2]): 0 | B. signalgrass plant response rating (surinam grass; [3]): 0 | Plant response rating, B. signalgrass (surinam grass; [4]): 0 | B. signalgrass plant response rating (surinam grass; [5]): 0 | B. signalgrass plant response rating (surinam grass; [6]): 2 | B. signalgrass plant response rating (surinam grass; [7]): 0 | Plant response rating, B. signalgrass (surinam grass; [8]): 4 | Blackgrass plant response rating (blackgrass; [1]): 0 | Blackgrass plant response rating (blackgrass; [2]): 0 | Blackgrass plant response rating (blackgrass; [3]): 2 | Plant response rating, Blackgrass (blackgrass; [4]): 0 | Blackgrass plant response rating (blackgrass; [5]): 0 | Blackgrass plant response rating (blackgrass; [6]): 2 | Blackgrass plant response rating (blackgrass; [7]): 0 | Plant response rating, Blackgrass (blackgrass; [8]): 4 | Rice plant response rating (rice; [9]): 0 | Rice plant response rating (0 to 10 scale, 0 is no effect, 10 is complete control) (rice; [10]): 0 | Rice plant response rating (rice; [11]): 0 | Rice plant response rating (rice; [12]): 0 | Ducksalad plant response rating (duck salad; [9]): 0 | Ducksalad plant response rating (0 to 10 scale, 0 is no effect, 10 is complete control) (duck salad; [10]): 0 | Ducksalad plant response rating (duck salad; [11]): 0 | Ducksalad plant response rating (duck salad; [12]): 0 | Redroot pigweed plant response rating (pigweed; [1]): 0 | Redroot pigweed plant response rating (pigweed; [2]): 0 | Redroot pigweed plant response rating (pigweed; [3]): 0 | Plant response rating, Redroot pigweed (pigweed; [4]): 0 | Redroot pigweed plant response rating (pigweed; [5]): 0 | Redroot pigweed plant response rating (pigweed; [6]): 0 | Redroot pigweed plant response rating (pigweed; [7]): 0 | Plant response rating, Redroot pigweed (pigweed; [8]): 0 | Bedstraw plant response rating (bedstraw; [1]): 0 | Plant response rating, Bedstraw (bedstraw; [4]): 0 | Bedstraw plant response rating (bedstraw; [5]): 0 | Bedstraw plant response rating (bedstraw; [6]): 0 | Bedstraw plant response rating (bedstraw; [7]): 0 | Plant response rating, Bedstraw (bedstraw; [8]): 0 | Nutsedge plant response rating (purple nutsedge; [1]): 0 | Nutsedge plant response rating (purple nutsedge; [2]): 0 | Nutsedge plant response rating (purple nutsedge; [3]): 0 | Plant response rating, Nutsedge (purple nutsedge; [4]): 0 | Nutsedge plant response rating (purple nutsedge; [5]): 0 | Nutsedge plant response rating (purple nutsedge; [6]): 0 | Nutsedge plant response rating (purple nutsedge; [7]): 0 | Plant response rating, Nutsedge (purple nutsedge; [8]): 0 | Cocklebur plant response rating (cocklebur; [1]): 0 | Cocklebur plant response rating (cocklebur; [2]): 0 | Cocklebur plant response rating (cocklebur; [3]): 0 | Plant response rating, Cocklebur (cocklebur; [4]): 0 | Cocklebur plant response rating (cocklebur; [5]): 0 | Cocklebur plant response rating (cocklebur; [7]): 0 | Sugarbeets plant response rating (sugar beet; [1]): 0 | Sugarbeets plant response rating (sugar beet; [2]): 0 | Sugarbeets plant response rating (sugar beet; [3]): 0 | Plant response rating, Sugarbeets (sugar beet; [4]): 0 | Sugarbeets plant response rating (sugar beet; [5]): 0 | Sugarbeets plant response rating (sugar beet; [6]): 0 | Sugarbeets plant response rating (sugar beet; [7]): 0 | Plant response rating, Sugarbeets (sugar beet; [8]): 0 | Corn plant response rating (corn; [1]): 0 | Corn plant response rating (corn; [2]): 0 | Corn plant response rating (corn; [3]): 0 | Plant response rating, Corn (corn; [4]): 0 | Corn plant response rating (corn; [5]): 0 | Corn plant response rating (corn; [6]): 0 | Corn plant response rating (corn; [7]): 0 | Plant response rating, Corn (corn; [8]): 2 | Velvetleaf plant response rating (velvetleaf; [1]): 0 | Velvetleaf plant response rating (velvetleaf; [2]): 0 | Velvetleaf plant response rating (velvetleaf; [3]): 2 | Plant response rating, Velvetleaf (velvetleaf; [4]): 0 | Velvetleaf plant response rating (velvetleaf; [5]): 0 | Velvetleaf plant response rating (velvetleaf; [6]): 0 | Velvetleaf plant response rating (velvetleaf; [7]): 0 | Plant response rating, Velvetleaf (velvetleaf; [8]): 0
